Assay results from patent US20250092016A1, “COMPOUNDS AND COMPOSITIONS FOR THE TREATMENT OF CORONAVIRAL RELATED DISEASES” (priority 2021, published 2025).
pIC50: −log10 of the molar value.

The compounds below were run against SARS-CoV-2 main protease (M^pro) (Severe acute respiratory syndrome coronavirus 2, UniProt P0DTD1) (assay: Rapid-Fire MS Biochemical Assay measuring Mpro activity (5 nM Mpro)). Conditions: Table 1B, Mpro inhibition, 5 μM substrate peptide, 120 min, read-out: Rapid-Fire Assay IC50.
In the case of `N#C[C@H]1CN(C2CC(C(F)(F)F)C2)C(=O)N1c1cncc2ccccc12` (mixture of isomers) [Compound 45, (R)-3-(isoquinolin-4-yl)-2-oxo-1-(3-(trifluoromethyl)cyclobutyl)imidazolidine-4-carbonitrile], the pIC50 was < 6.00.
In the case of `COc1cc(C(F)(F)F)ccc1N1CC(C#N)N(c2cncc3ccccc23)C1=O` (racemic) [Compound 12, 3-(isoquinolin-4-yl)-1-(2-methoxy-4-(trifluoromethyl)phenyl)-2-oxoimidazolidine-4-carbonitrile], the pIC50 was 6.70 to 7.70.
In the case of `COc1ccc(C#N)cc1N1CC(C#N)N(c2cncc3ccccc23)C1=O` (racemic) [Compound 15, 1-(5-cyano-2-methoxyphenyl)-3-(isoquinolin-4-yl)-2-oxoimidazolidine-4-carbonitrile], the pIC50 was > 7.70.
`COc1cc(C#N)ccc1N1CC(C#N)N(c2cncc3ccccc23)C1=O` (racemic) [Compound 19, 1-(4-cyano-2-methoxyphenyl)-3-(isoquinolin-4-yl)-2-oxoimidazolidine-4-carbonitrile] showed a pIC50 of 6.00 to 6.70.
`N#Cc1ccc(Cl)cc1N1CC(C#N)N(c2cncc3ccccc23)C1=O` (racemic) [Compound 20, 1-(5-chloro-2-cyanophenyl)-3-(isoquinolin-4-yl)-2-oxoimidazolidine-4-carbonitrile] was tested, and the pIC50 was > 7.70.
In the case of `N#CC1CN(C2CC(F)(F)C2)C(=O)N1c1cncc2ccccc12` (racemic) [Compound 27, 1-(3,3-difluorocyclobutyl)-3-(isoquinolin-4-yl)-2-oxoimidazolidine-4-carbonitrile], the pIC50 was 6.70 to 7.70.
`N#CC1CN(C2CC(O)(C(F)(F)F)C2)C(=O)N1c1cncc2ccccc12` (racemic) [Compound 28, 1-(3-hydroxy-3-(trifluoromethyl)cyclobutyl)-3-(isoquinolin-4-yl)-2-oxoimidazolidine-4-carbonitrile] gave a pIC50 of 6.70 to 7.70.
In the case of `N#CC1CN(c2cccc(Cl)c2)C(=O)N1c1cncc2ccc(C(=O)O)cc12` (racemic) [Compound 33, 4-(3-(3-chlorophenyl)-5-cyano-2-oxoimidazolidin-1-yl)isoquinoline-6-carboxylic acid], the pIC50 was > 7.70.
`CS(=O)(=O)c1ccc2cncc(N3C(=O)N(c4cccc(Cl)c4)CC3C#N)c2c1` (racemic) [Compound 37, 1-(3-chlorophenyl)-3-(6-(methylsulfonyl)isoquinolin-4-yl)-2-oxoimidazolidine-4-carbonitrile] was tested, and the pIC50 was > 7.70.
With `N#CC1CN(c2ccnc(C(F)(F)F)c2)C(=O)N1c1cncc2ccccc12` (racemic) [Compound 57, 3-(isoquinolin-4-yl)-2-oxo-1-(2-(trifluoromethyl)pyridin-4-yl)imidazolidine-4-carbonitrile] the pIC50 was > 7.70.
`COc1cc(Cl)cnc1N1CC(C#N)N(c2cncc3ccccc23)C1=O` (racemic) [Compound 58, 1-(5-chloro-3-methoxypyridin-2-yl)-3-(isoquinolin-4-yl)-2-oxoimidazolidine-4-carbonitrile] gave a pIC50 of 6.00 to 6.70.
`N#Cc1cc(Cl)ccc1N1CC(C#N)N(c2cncc3ccccc23)C1=O` (racemic) [Compound 60, 1-(4-chloro-2-cyanophenyl)-3-(isoquinolin-4-yl)-2-oxoimidazolidine-4-carbonitrile] was tested, and the pIC50 was 6.70 to 7.70.
`CC(C)n1cc(N2CC(C#N)N(c3cncc4ccccc34)C2=O)cn1` (racemic) [Compound 64, 1-(1-isopropyl-1H-pyrazol-4-yl)-3-(isoquinolin-4-yl)-2-oxoimidazolidine-4-carbonitrile] gave a pIC50 of 6.70 to 7.70.
In the case of `Cn1cc(N2CC(C#N)N(c3cncc4ccccc34)C2=O)cn1` (racemic) [Compound 65, 3-(isoquinolin-4-yl)-1-(1-methyl-1H-pyrazol-4-yl)-2-oxoimidazolidine-4-carbonitrile], the pIC50 was 6.00 to 6.70.
Work on `N#CC1CN(c2ccc(F)cc2F)C(=O)N1c1cncc2ccccc12` (racemic) [Compound 66, 1-(2,4-difluorophenyl)-3-(isoquinolin-4-yl)-2-oxoimidazolidine-4-carbonitrile] yielded a pIC50 of 6.70 to 7.70.
Work on `N#CC1CN(c2cc(C(F)(F)F)ncc2Cl)C(=O)N1c1cncc2ccccc12` (racemic) [Compound 70-1, 1-(5-chloro-2-(trifluoromethyl)pyridin-4-yl)-3-(isoquinolin-4-yl)-2-oxoimidazolidine-4-carbonitrile] yielded a pIC50 of 6.70 to 7.70.
For `N#CC1CN(c2ccc(F)c(F)c2)C(=O)N1c1cncc2ccccc12` (racemic) [Compound 72, 1-(3,4-difluorophenyl)-3-(isoquinolin-4-yl)-2-oxoimidazolidine-4-carbonitrile], the pIC50 was > 7.70.
For `Cc1ncccc1N1CC(C#N)N(c2cncc3ccccc23)C1=O` (racemic) [Compound 74, 3-(isoquinolin-4-yl)-1-(2-methylpyridin-3-yl)-2-oxoimidazolidine-4-carbonitrile], the pIC50 was 6.00 to 6.70.
With `Cc1cc(Cl)cnc1N1CC(C#N)N(c2cncc3ccccc23)C1=O` (racemic) [Compound 80, 1-(5-chloro-3-methylpyridin-2-yl)-3-(isoquinolin-4-yl)-2-oxoimidazolidine-4-carbonitrile] the pIC50 was 6.70 to 7.70.
With `N#CC1CN(c2ccc(F)c(Cl)c2)C(=O)N1c1cncc2ccccc12` (racemic) [Compound 87, 1-(3-chloro-4-fluorophenyl)-3-(isoquinolin-4-yl)-2-oxoimidazolidine-4-carbonitrile] the pIC50 was > 7.70.
For `N#CC1CN(c2cccc(OC(F)F)c2)C(=O)N1c1cncc2ccccc12` (racemic) [Compound 89, 1-(3-(difluoromethoxy)phenyl)-3-(isoquinolin-4-yl)-2-oxoimidazolidine-4-carbonitrile], the pIC50 was 6.00 to 6.70.
`N#Cc1ccc(C(F)(F)F)cc1N1CC(C#N)N(c2cncc3ccccc23)C1=O` (racemic) [Compound 90, 1-(2-cyano-5-(trifluoromethyl)phenyl)-3-(isoquinolin-4-yl)-2-oxoimidazolidine-4-carbonitrile] was tested, and the pIC50 was > 7.70.
`N#CC1CN(c2cccc(OC(F)(F)F)c2)C(=O)N1c1cncc2ccccc12` (racemic) [Compound 92, 3-(isoquinolin-4-yl)-2-oxo-1-(3-(trifluoromethoxy)phenyl)imidazolidine-4-carbonitrile] was tested, and the pIC50 was > 7.70.
Work on `COc1cc(Cl)ccc1N1CC(C#N)N(c2cncc3ccccc23)C1=O` (racemic) [Compound 103, 1-(4-chloro-2-methoxyphenyl)-3-(isoquinolin-4-yl)-2-oxoimidazolidine-4-carbonitrile] yielded a pIC50 of 6.70 to 7.70.
`N#CC1CN(c2cccc(C(F)(F)F)c2)C(=O)N1c1cncc2ccccc12` (racemic) [Compound 106, 3-(isoquinolin-4-yl)-2-oxo-1-(3-(trifluoromethyl)phenyl)imidazolidine-4-carbonitrile] was tested, and the pIC50 was < 6.00.
In the case of `N#CC1CN(c2cc(F)cc(F)c2)C(=O)N1c1cncc2ccccc12` (racemic) [Compound 110, 1-(3,5-difluorophenyl)-3-(isoquinolin-4-yl)-2-oxoimidazolidine-4-carbonitrile], the pIC50 was > 7.70.
With `N#CC1CN(c2ccc(=O)[nH]c2)C(=O)N1c1cncc2ccccc12` (racemic) [Compound 113, 3-(isoquinolin-4-yl)-2-oxo-1-(6-oxo-1,6-dihydropyridin-3-yl)imidazolidine-4-carbonitrile] the pIC50 was < 6.00.
`Cc1ccc(C#N)c(N2CC(C#N)N(c3cncc4ccccc34)C2=O)c1` (racemic) [Compound 116, 1-(2-cyano-5-methylphenyl)-3-(isoquinolin-4-yl)-2-oxoimidazolidine-4-carbonitrile] was tested, and the pIC50 was > 7.70.
`Cc1c[nH]c(N2CC(C#N)N(c3cncc4ccccc34)C2=O)n1` (racemic) [Compound 118, 3-(isoquinolin-4-yl)-1-(4-methyl-1 H-imidazol-2-yl)-2-oxoimidazolidine-4-carbonitrile] showed a pIC50 of 6.00 to 6.70.
With `N#CC1CN(c2nc(Cl)c[nH]2)C(=O)N1c1cncc2ccccc12` (racemic) [Compound 119, 1-(4-chloro-1H-imidazol-2-yl)-3-(isoquinolin-4-yl)-2-oxoimidazolidine-4-carbonitrile] the pIC50 was 6.70 to 7.70.
For `N#CC1CN(C2CC3(C2)CC(F)(F)C3)C(=O)N1c1cncc2ccccc12` (racemic) [Compound 127, 1-(6,6-difluorospiro[3.3]heptan-2-yl)-3-(isoquinolin-4-yl)-2-oxoimidazolidine-4-carbonitrile], the pIC50 was > 7.70.
`N#CC1CN(C2CN(CC(F)(F)F)C2)C(=O)N1c1cncc2ccccc12` (racemic) [Compound 133, 3-(isoquinolin-4-yl)-2-oxo-1-(1-(2,2,2-trifluoroethyl)azetidin-3-yl)imidazolidine-4-carbonitrile] was tested, and the pIC50 was > 7.70.
`N#CC1CN(C2CN(C3CC3)C2)C(=O)N1c1cncc2ccccc12` (racemic) [Compound 135, 1-(1-cyclopropylazetidin-3-yl)-3-(isoquinolin-4-yl)-2-oxoimidazolidine-4-carbonitrile] gave a pIC50 of 6.70 to 7.70.
`N#CC1CN(C23CC(F)(C2)C3)C(=O)N1c1cncc2ccccc12` (racemic) [Compound 139, 1-(3-fluorobicyclo[1.1.1]pentan-1-yl)-3-(isoquinolin-4-yl)-2-oxoimidazolidine-4-carbonitrile] gave a pIC50 of 6.70 to 7.70.
`COc1cc(C(F)(F)F)ccc1N1C[C@H](C#N)N(c2cncc3ccccc23)C1=O` (single isomer, unassigned) [Compound 12a] was tested, and the pIC50 was > 7.70.
`COc1cc(C(F)(F)F)ccc1N1C[C@@H](C#N)N(c2cncc3ccccc23)C1=O` (single isomer, unassigned) [Compound 12b] was tested, and the pIC50 was < 6.00.
In the case of `N#C[C@H]1CN(c2cnnc(C(F)(F)F)c2)C(=O)N1c1cncc2ccccc12` (single isomer, unassigned) [Compound 13a], the pIC50 was > 7.70.
With `N#C[C@@H]1CN(c2cnnc(C(F)(F)F)c2)C(=O)N1c1cncc2ccccc12` (single isomer, unassigned) [Compound 13b] the pIC50 was < 6.00.
For `COc1cnc(C(F)(F)F)cc1N1C[C@H](C#N)N(c2cncc3ccccc23)C1=O` (single isomer, unassigned) [Compound 14a], the pIC50 was > 7.70.
For `COc1cnc(C(F)(F)F)cc1N1C[C@@H](C#N)N(c2cncc3ccccc23)C1=O` (single isomer, unassigned) [Compound 14b], the pIC50 was < 6.00.
`COc1ccc(C#N)cc1N1C[C@H](C#N)N(c2cncc3ccccc23)C1=O` (single isomer, unassigned) [Compound 15a] was tested, and the pIC50 was > 7.70.
